In patent US11884750B2, “Cationic cell penetrating peptides and the use thereof” (CELLTROY CO., LTD., priority 2021, dated 2024):
“Also recorded” adds a separate entry of the source.

Experiments:
[1] = test system: HEK293T cell line; assay: Cell penetration efficiency using kidney cells; type: cell-based; settings: 4 μM FITC-conjugated CPP, one hour
Procedure, shortened: (§1)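 Flow cytometry quantified cell-associated FITC signal following a 1 h incubation with FITC-tagged CPP or TAT at 4 μM.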

[2] = test system: macrophages; assay: Cell penetration efficiency using macrophages; type: cell-based; settings: macrophages differentiated from THP1 cells, 4 μM FITC-conjugated CPP, one hour
Procedure: (§2) Subsequently, to confirm whether the CPPs according to the present invention show excellent cell permeability into different types of cells/tissues, various tissue-derived cells were treated with biologically active molecule-conjugated CPPs to compare its delivery capacity with TAT. As in the previous examples, each cell was aliquoted in a plate at an appropriate density, and cultured in a 10% FBS-added medium under a condition of 37° C. and 5% CO2 for 24 hours. Subsequently, the cells were treated with 4 μM each of FITC-conjugated CPP or FITC-conjugated TAT and incubated for one hour. After the completion of the incubation, the cells were transferred to a sterile tube using 0.25% trypsin and centrifuged to remove the medium. Afterward, the cells were washed with 500 μL of D-PBS twice to completely remove the medium, and finally, resuspended in 400 μL of D-PBS and intracellular fluorescence was measured by flow cytometry (FACSCanto II). Macrophages were used by inducing differentiation from THP1 cells. Specifically, the THP-1 cells were aliquoted on a cover glass laid on a 24-well plate to have a density of 6×10^4 cells/well, and after the addition of 100 ng/mL of phorbol 12-myristate 13-acetate (PMA), the cells were incubated for 48 hours to induce the differentiation into macrophages. After 48 hours, the cells were washed with Dulbecco's phosphate buffered saline (DPBS) to perform an experiment.

[3] = test system: HaCAT cells; assay: Cell penetration efficiency in human epidermal (skin) cells, 4 μM, flow cytometry; type: cell-based; settings: 4 μM FITC-conjugated CPP, one hour
Procedure, shortened: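 HaCAT cells […] were grown 24 h in DMEM with 10% FBS at 37 °C, then treated 1 h with 4 μM FITC-conjugated peptide or FITC-TAT. Cells were trypsinised and washed in D-PBS. Intracellular fluorescence was read by flow cytometry.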

[4] = test system: SNU-46 cell line; assay: Cell penetration efficiency using laryngeal cells; type: cell-based; settings: SNU-46 laryngeal cells, 4 μM FITC-conjugated CPP, one hour
Procedure, shortened: as §1

[5] = test system: A-427 cell line; assay: Cell penetration efficiency using lung cells; type: cell-based; settings: A-427 lung cells, 4 μM FITC-conjugated CPP, one hour
Procedure, shortened: as §1

[6] = test system: monocytes; assay: Cell penetration efficiency using monocytes; type: cell-based; settings: 4 μM FITC-conjugated CPP, one hour
Procedure: as §2, with “II).” for “II). Macrophages were used by inducing differentiation from THP1 cells. Specifically, the THP-1 cells were aliquoted on a cover glass laid on a 24-well plate to have a density of 6×10^4 cells/well, and after the addition of 100 ng/mL of phorbol 12-myristate 13-acetate (PMA), the cells were incubated for 48 hours to induce the differentiation into macrophages. After 48 hours, the cells were washed with Dulbecco's phosphate buffered saline (DPBS) to perform an experiment.”

[7] = test system: HGB cell line; assay: Cell penetration efficiency in glioblastoma cells; type: cell-based, human; settings: 4 μM FITC-conjugated CPP, one hour
Procedure, shortened: as §1

[8] = test system: HT1080 cell line; assay: Cell penetration efficiency using connective tissue (fibrosarcoma) cells; type: cell-based; settings: 4 μM FITC-conjugated CPP, one hour
Procedure, shortened: as §1

[9] = test system: SH-SY5Y cells; assay: Cell penetration efficiency in human neuroblastoma cells, 4 μM, flow cytometry; type: cell-based; settings: one hour; for cell permeability compared with TAT: 4 μM FITC-conjugated CPP, flow cytometry; for Score / Score/TAT: 4 μM FITC-conjugated peptide; for Score: intracellular fluorescence by flow cytometry; for Score/TAT: ratio to FITC-conjugated TAT
Procedure, shortened: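 SH-SY5Y cells cultured 24 h in DMEM/10% FBS at 37 °C, 5% CO2, then exposed to 4 μM FITC-conjugated peptide (FITC-TAT as reference) for 1 h. After trypsinisation and D-PBS washes, intracellular fluorescence measured by flow cytometry.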

[10] = test system: HDF cell line; assay: Cell penetration efficiency in skin cells (HDF); type: cell-based; settings: 4 μM FITC-conjugated CPP, one hour
Procedure, shortened: as §1

[11] = test system: HepG2 cell line; assay: Cell penetration efficiency using liver cells; type: cell-based; settings: 4 μM FITC-conjugated CPP, one hour
Procedure: as §2, with “II).” for “II). Macrophages were used by inducing differentiation from THP1 cells. Specifically, the THP-1 cells were aliquoted on a cover glass laid on a 24-well plate to have a density of 6×10^4 cells/well, and after the addition of 100 ng/mL of phorbol 12-myristate 13-acetate (PMA), the cells were incubated for 48 hours to induce the differentiation into macrophages. After 48 hours, the cells were washed with Dulbecco's phosphate buffered saline (DPBS) to perform an experiment.”

[12] = test system: HeLa cell line; assay: Cell penetration efficiency using cervical cancer cells; type: cell-based; settings: 4 μM FITC-conjugated CPP, one hour
Procedure, shortened: as §1

## ARLRVILRRRHPRR [C95]
[1]
  cell permeability compared with TAT: higher cell permeability
[2]
  cell permeability compared with TAT: higher cell permeability
[3]
  cell permeability compared with TAT: higher cell permeability
[4]
  cell permeability compared with TAT: higher cell permeability
[5]
  cell permeability compared with TAT: higher cell permeability
[6]
  cell permeability compared with TAT: higher cell permeability
[7]
  cell permeability compared with TAT: higher cell permeability
  cell permeability, fold of TAT: ≥ 2 fold
[8]
  cell permeability compared with TAT: higher cell permeability
[9]
  cell permeability compared with TAT: higher cell permeability
  Score: 2417
  Score/TAT: 4.657
[10]
  cell permeability compared with TAT: higher cell permeability
[11]
  cell permeability compared with TAT: higher cell permeability

## IPLRRLMRRARRHR [C112]
[2]
  cell permeability compared with TAT: higher cell permeability
[3]
  cell permeability compared with TAT: higher cell permeability
[4]
  cell permeability compared with TAT: higher cell permeability
[6]
  cell permeability compared with TAT: higher cell permeability
[7]
  cell permeability compared with TAT: higher cell permeability
[9]
  cell permeability compared with TAT: higher cell permeability
  Score: 946
  Score/TAT: 1.823
[10]
  cell permeability compared with TAT: higher cell permeability
[11]
  cell permeability compared with TAT: higher cell permeability
[12]
  cell permeability compared with TAT: higher cell permeability

## WPRRRLRLRHRARR [C113]
[1]
  cell permeability compared with TAT: higher cell permeability
[2]
  cell permeability compared with TAT: higher cell permeability
[3]
  cell permeability compared with TAT: higher cell permeability
[4]
  cell permeability compared with TAT: higher cell permeability
[5]
  cell permeability compared with TAT: higher cell permeability
[6]
  cell permeability compared with TAT: higher cell permeability
[7]
  cell permeability compared with TAT: higher cell permeability
[8]
  cell permeability compared with TAT: higher cell permeability
[9]
  cell permeability compared with TAT: higher cell permeability
  Score: 1278
  Score/TAT: 2.462
[10]
  cell permeability compared with TAT: higher cell permeability
[11]
  cell permeability compared with TAT: higher cell permeability
[12]
  cell permeability compared with TAT: higher cell permeability

## LVPRRLRRRARRRK [C179]
[1]
  cell permeability compared with TAT: higher cell permeability
[2]
  cell permeability compared with TAT: higher cell permeability
[3]
  cell permeability compared with TAT: higher cell permeability
[4]
  cell permeability compared with TAT: higher cell permeability
[5]
  cell permeability compared with TAT: higher cell permeability
[6]
  cell permeability compared with TAT: higher cell permeability
[7]
  cell permeability compared with TAT: higher cell permeability
[8]
  cell permeability compared with TAT: higher cell permeability
[9]
  cell permeability compared with TAT: higher cell permeability
  Score: 2076
  Score/TAT: 4.000
[10]
  cell permeability compared with TAT: higher cell permeability
[11]
  cell permeability compared with TAT: higher cell permeability
[12]
  cell permeability compared with TAT: higher cell permeability

## AARIRALRRRRRRP [C72]
[1]
  cell permeability compared with TAT: higher cell permeability
[2]
  cell permeability compared with TAT: higher cell permeability
[3]
  cell permeability compared with TAT: higher cell permeability
[4]
  cell permeability compared with TAT: higher cell permeability
[5]
  cell permeability compared with TAT: higher cell permeability
[6]
  cell permeability compared with TAT: higher cell permeability
[7]
  cell permeability compared with TAT: higher cell permeability
[8]
  cell permeability compared with TAT: higher cell permeability
[9]
  cell permeability compared with TAT: higher cell permeability
  Score: 1026
  Score/TAT: 1.977
[10]
  cell permeability compared with TAT: higher cell permeability
[11]
  cell permeability compared with TAT: higher cell permeability
[12]
  cell permeability compared with TAT: higher cell permeability

## RPRRKKQIKRLCKR [C16]
[1]
  cell permeability compared with TAT: higher cell permeability
[2]
  cell permeability compared with TAT: higher cell permeability
[3]
  cell permeability compared with TAT: increased cell permeability; also recorded: higher cell permeability
[4]
  cell permeability compared with TAT: higher cell permeability
[5]
  cell permeability compared with TAT: higher cell permeability
[7]
  cell permeability compared with TAT: higher cell permeability
[8]
  cell permeability compared with TAT: higher cell permeability
[9]
  cell permeability compared with TAT: higher cell permeability
  Score: 1680
  Score/TAT: 3.237
[10]
  cell permeability compared with TAT: higher cell permeability
[11]
  cell permeability compared with TAT: higher cell permeability
[12]
  cell permeability compared with TAT: higher cell permeability

## SRRRLRRFLRRIAP [C185]
[1]
  cell permeability compared with TAT: higher cell permeability
[2]
  cell permeability compared with TAT: higher cell permeability
[3]
  cell permeability compared with TAT: higher cell permeability
[4]
  cell permeability compared with TAT: higher cell permeability
[6]
  cell permeability compared with TAT: higher cell permeability
[7]
  cell permeability compared with TAT: higher cell permeability
[9]
  cell permeability compared with TAT: higher cell permeability
  Score: 1684
  Score/TAT: 3.245
[10]
  cell permeability compared with TAT: higher cell permeability
[11]
  cell permeability compared with TAT: higher cell permeability
[12]
  cell permeability compared with TAT: higher cell permeability
